From US20090054417A1, “COMPOUNDS AND COMPOSITIONS AS MODULATORS OF STEROID HORMONE NUCLEAR RECEPTORS” (IRM LLC, priority 2004, published 2009)

Experiments:
Type in all cases: cell-based
MR = molecular target: T1, MR (Homo sapiens, UniProt P08235); assay: Functional assay of mineralocorticoid receptor antagonism (mammalian two hybrid luciferase reporter, 293T cells, aldosterone-stimulated); settings: antagonism of MR trans-activation induced by 0.4 nM aldosterone
T1 construct: expressed in transfected cells; host or cells: 293T cells
T1 sequence (P08235 672-984): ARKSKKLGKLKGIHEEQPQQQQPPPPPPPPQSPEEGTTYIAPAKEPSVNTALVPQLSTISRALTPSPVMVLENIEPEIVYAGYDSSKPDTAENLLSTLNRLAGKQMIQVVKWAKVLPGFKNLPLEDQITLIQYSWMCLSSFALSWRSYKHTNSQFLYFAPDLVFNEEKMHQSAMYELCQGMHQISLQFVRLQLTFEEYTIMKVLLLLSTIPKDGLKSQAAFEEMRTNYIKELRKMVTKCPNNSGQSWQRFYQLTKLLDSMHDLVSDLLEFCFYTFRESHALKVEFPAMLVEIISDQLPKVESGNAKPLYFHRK
Experimental: The MR antagonist activity of the compounds is determined in a mammalian two hybrid reporter system. The N-terminus of MR (MR-NT, sequence coding amino acid 1-597) is fused to the activation domain of the VP16 gene. The ligand binding domain of MR (MR-LBD, sequence encoding amino acid 672-984) is fused to the DNA binding domain of the yeast Gal4 gene. The MR gene is cloned from a human kidney cDNA library with PCR.
The assay is performed in 384 well plates. Briefly, 293T cells (ATCC) are transfected with expression vectors for Gal-4-MR-LBD and VP16-MR NT, and a luciferase reporter vector containing Gal4 binding sequence (pG5-Luc). Cells are plated in 384 well plates immediately after transfection (approximately 3×10^4 cells/well in 50 μl medium). The medium is supplemented with 3% charcoal-dextran treated fetal bovine serum (Hyclone). Twenty four hours after transfection, compounds prepared in DMSO are transferred to the cells. The cells are then stimulated with 0.4 nM final concentration of aldosterone (Acros) and incubated at 37° C. for another 24 hours before the luciferase activity is assayed with 20 μl of Bright-Glo (Promega) using a luminometer (CLIPR). The expression of luciferase is used as an indicator of aldosterone-induced MR trans-activation. Each compound is tested in duplicates with 12-concentration titration. IC50 values (defined as the concentration of test compound required to antagonize 50% of aldosterone-induced MR activity) are determined from the dose-response curve.

AR = molecular target: T2, AR (Homo sapiens, UniProt P10275); assay: Functional assay of androgen receptor antagonism (MMTV luciferase reporter in MDA-kb2 cells, dihydrotestosterone-stimulated); settings: antagonism of AR trans-activation induced by 0.3 nM dihydrotestosterone
T2 sequence (P10275 1-920 Q868H): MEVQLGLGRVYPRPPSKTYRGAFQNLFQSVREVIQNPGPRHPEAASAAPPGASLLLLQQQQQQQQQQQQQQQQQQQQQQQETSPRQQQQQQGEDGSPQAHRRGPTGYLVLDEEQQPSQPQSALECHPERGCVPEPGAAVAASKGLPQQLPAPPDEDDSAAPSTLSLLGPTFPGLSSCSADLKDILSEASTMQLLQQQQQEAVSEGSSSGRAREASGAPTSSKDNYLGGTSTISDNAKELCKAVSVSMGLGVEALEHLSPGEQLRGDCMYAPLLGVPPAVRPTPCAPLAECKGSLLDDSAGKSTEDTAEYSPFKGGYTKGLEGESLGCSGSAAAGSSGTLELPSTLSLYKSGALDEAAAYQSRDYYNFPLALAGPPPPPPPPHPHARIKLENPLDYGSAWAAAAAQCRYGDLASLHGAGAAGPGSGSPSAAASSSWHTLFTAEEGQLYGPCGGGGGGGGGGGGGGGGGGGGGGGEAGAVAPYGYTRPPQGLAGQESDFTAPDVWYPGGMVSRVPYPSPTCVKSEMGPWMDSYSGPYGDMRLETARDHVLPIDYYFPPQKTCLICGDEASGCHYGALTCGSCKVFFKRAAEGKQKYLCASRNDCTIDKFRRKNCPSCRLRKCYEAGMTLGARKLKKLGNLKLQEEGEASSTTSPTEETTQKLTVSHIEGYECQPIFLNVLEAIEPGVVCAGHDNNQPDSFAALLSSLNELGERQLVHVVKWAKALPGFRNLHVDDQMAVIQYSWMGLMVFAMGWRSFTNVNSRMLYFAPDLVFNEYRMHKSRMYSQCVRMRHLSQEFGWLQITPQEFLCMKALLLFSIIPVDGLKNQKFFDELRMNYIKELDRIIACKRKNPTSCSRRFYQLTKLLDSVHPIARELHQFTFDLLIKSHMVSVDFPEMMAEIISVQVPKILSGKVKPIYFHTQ
Experimental: The AR antagonist activity of the compounds is determined with the MDA-Kb2 cell line (ATCC), which stably expresses the MMTV luciferase reporter. The MMTV promoter is a mouse mammary tumor virus promoter that contains androgen receptor response elements. […] Upon stimulation with AR ligands, such as dihydrotestosterone, the MMTV luciferase reporter can be activated.
The assay is performed in 384 well plates. Briefly, MDA-kb2 cells are plated in 384 well plates at a density of approximately 2.4×10^4 cells/well in 50 μl medium. The medium is supplemented with 5% charcoal-dextran treated fetal bovine serum (Hyclone). Twenty four hours later, compounds prepared in DMSO are transferred to the cells. The cells are then stimulated with 0.3 nM final concentration of dihydrotestosterone (Sigma) and incubated at 37° C. for another 24 hours before the luciferase activity is assayed with 20 μl of Bright-Glo (Promega) using a luminometer (CLIPR). The expression of luciferase is used as an indicator of dihydrotestosterone-induced AR trans-activation. Each compound is tested in duplicates with a 12-concentration titration. IC50 values (defined as the concentration of test compound required to antagonize 50% of dihydrotestosterone-induced AR activity) are determined from the dose-response curve.

GR = molecular target: T3, GR (Homo sapiens, UniProt P04150); assay: Functional assay of glucocorticoid receptor antagonism (Gal4-GR-LBD luciferase reporter, COS-7 cells, dexamethasone-stimulated); settings: antagonism of GR trans-activation induced by 10 nM dexamethasone
T3 construct: expressed in transfected cells; host or cells: COS-7 cells
T3 sequence (P04150 541-777): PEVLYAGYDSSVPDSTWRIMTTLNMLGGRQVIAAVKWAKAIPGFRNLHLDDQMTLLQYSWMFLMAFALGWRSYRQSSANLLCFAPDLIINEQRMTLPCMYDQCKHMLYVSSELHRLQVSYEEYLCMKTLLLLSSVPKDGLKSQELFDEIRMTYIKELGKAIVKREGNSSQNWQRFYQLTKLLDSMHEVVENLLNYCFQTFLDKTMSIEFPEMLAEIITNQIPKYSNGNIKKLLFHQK
Experimental: The GR antagonist activity of the compounds is determined in a mammalian two hybrid reporter system. The ligand binding domain of GR (GR-LBD, sequence encoding amino acid 541-778) is fused to the DNA binding domain of the yeast Gal4 gene. The GR gene is cloned from a human lung cDNA library with PCR.
The assay is performed in 384 well plates: COS-7 cells (ATCC) are transfected with expression vectors for Gal-4-GR-LBD and a luciferase reporter vector containing Gal4 binding sequence (pG5-Luc). Cells are plated in 384 well plates immediately after transfection (approximately 8000 cells/well in 50 μl medium). The medium is supplemented with 3% charcoal-dextran treated fetal bovine serum (Hyclone). Twenty four hours after transfection, compounds prepared in DMSO are transferred to the cells. The cells are then stimulated with 10 nM final concentration of dexamethasone (Sigma) and incubated at 37° C. for another 24 hours before the luciferase activity is assayed with 20 μl of Bright-Glo (Promega) using a luminometer (CLIPR). The expression of luciferase is used as an indicator of dexamethasone-induced GR trans-activation. Each compound is tested in duplicates with a 12-concentration titration. IC50 values (defined as the concentration of test compound required to antagonize 50% of dexamethasone-induced GR activity) are determined from the dose-response curve.

PR = molecular target: T4, PR (Homo sapiens, UniProt P06401); assay: Functional assay of progesterone receptor antagonism (progesterone-induced alkaline phosphatase activity in T-47D cells); settings: antagonism of PR activity induced by 3 nM progesterone
T4 sequence (P06401 1-933): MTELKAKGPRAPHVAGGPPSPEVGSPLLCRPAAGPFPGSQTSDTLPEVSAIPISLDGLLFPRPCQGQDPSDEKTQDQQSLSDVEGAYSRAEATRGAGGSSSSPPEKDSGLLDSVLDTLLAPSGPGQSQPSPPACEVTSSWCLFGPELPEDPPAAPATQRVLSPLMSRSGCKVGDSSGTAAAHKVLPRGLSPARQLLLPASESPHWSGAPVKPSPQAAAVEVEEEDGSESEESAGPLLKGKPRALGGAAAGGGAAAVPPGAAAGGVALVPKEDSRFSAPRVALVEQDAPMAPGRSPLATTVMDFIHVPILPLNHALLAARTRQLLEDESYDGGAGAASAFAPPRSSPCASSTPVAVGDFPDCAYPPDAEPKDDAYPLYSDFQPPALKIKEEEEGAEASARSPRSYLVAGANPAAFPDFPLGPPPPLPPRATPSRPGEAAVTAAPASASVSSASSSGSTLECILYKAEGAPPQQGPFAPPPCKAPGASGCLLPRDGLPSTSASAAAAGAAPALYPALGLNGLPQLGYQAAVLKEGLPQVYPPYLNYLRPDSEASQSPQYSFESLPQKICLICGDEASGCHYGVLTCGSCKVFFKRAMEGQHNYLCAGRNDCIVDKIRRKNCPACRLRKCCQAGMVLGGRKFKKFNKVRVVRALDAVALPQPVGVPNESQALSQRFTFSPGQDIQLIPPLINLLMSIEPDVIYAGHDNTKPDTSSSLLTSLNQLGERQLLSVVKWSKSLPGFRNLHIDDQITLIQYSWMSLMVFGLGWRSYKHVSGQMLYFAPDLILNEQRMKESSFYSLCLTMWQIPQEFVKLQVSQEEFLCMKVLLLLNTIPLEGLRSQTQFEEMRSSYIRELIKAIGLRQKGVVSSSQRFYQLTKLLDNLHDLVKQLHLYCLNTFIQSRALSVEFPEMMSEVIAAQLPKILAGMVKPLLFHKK
Experimental: The PR antagonist activity of the compounds is determined by progesterone-induced alkaline phosphatase activity in the T-47D cell line (ATCC). In the T-47D breast cancer cells, progesterone specifically induces de novo synthesis of a membrane-associated alkaline phosphatase enzyme in a time and dose-dependent manner (Di Lorenzo et al., Cancer Research, 51: 4470-4475 (1991)). The alkaline phosphatase enzymatic activity can be measured with a chemiluminescent substrate, such as CSPD® (Applied Biosystems). The assay is performed in 384 well plates. Briefly, T-47D cells are plated in 384 well plates at a density of approximately 2.5×10^4 cells/well in 50 μl medium supplemented with 10% fetal bovine serum. Twenty four hours later, the medium is aspirated. New medium that is free of phenol red and serum is added to the cells. Compounds prepared in DMSO are transferred to the cells. The cells are then stimulated with 3 nM final concentration of progesterone (Sigma) and incubated at 37° C. for another 24 hours before the alkaline phosphatase is assayed with 25 μl of CSPD® (Applied Biosystems) using a luminometer (CLIPR). The expression of alkaline phosphatase is used as an indicator of progesterone-induced PR trans-activation. Each compound is tested in duplicates with a 12-concentration titration. […]

IC50 (MR) [nM] | IC50 (AR) [nM] | IC50 (GR) [nM] | IC50 (PR) [nM] | Compound
54 | 138 |  |  | Cc1ccccc1/C=C/c1ccc2c(c1)NC(=O)CO2 [6-(2-o-tolyl-vinyl)-4H-benzo[1,4]oxazin-3-one]
162 | 52 | > 10000 | > 20000 | Cc1c(-c2csc(-c3ccccc3C(F)(F)F)n2)ccc2c1NC(=O)CO2 [5-Methyl-6-[2-(2-trifluoromethyl-phenyl)-thiazol-4-yl]-4H-benzo[1,4]oxazin-3-one]
47 |  |  | 22 | Cc1cccc(-c2ccc3c(c2C)NC(=O)CO3)c1 [5-Methyl-6-m-tolyl-4H-benzo[1,4]oxazin-3-one]
1.3 |  | 210 |  | CC(=O)Oc1ccc(CCc2cc(C)c3c(c2)NC(=O)CO3)c(C)c1 [Acetic acid 3-methyl-4-[2-(8-methyl-3-oxo-3,4-dihydro-2H-benzo[1,4]oxazin-6-yl)-ethyl]-phenyl ester]
< 2 |  |  |  | CC(=O)Oc1ccc(CCc2ccc3c(c2)NC(=O)CO3)c(C)c1 [acetic acid 3-methyl-4-[2-(3-oxo-3,4-dihydro-2H-benzo[1,4]oxazin-6-yl)-ethyl]-phenyl ester]
